Test results as given in ChEMBL document CHEMBL3608294, “Epoxylathyrol Derivatives: Modulation of ABCB1-Mediated Multidrug Resistance in Human Colon Adenocarcinoma and Mouse T-Lymphoma Cells” (J Nat Prod, 2015).

How the values were obtained:
[1] = Selectivity index, ratio of antiproliferative IC50 for chemosensitive human COLO205 cells to antiproliferative IC50 for multidrug resistant human COLO320 cells; type: functional, COLO 205
L5178Y [2] = assay: Selectivity index, ratio of antiproliferative IC50 for wild type parental mouse L5178Y cells to antiproliferative IC50 for human ABCB1 expressing mouse L5178Y cells; type: functional
[3] = molecular target: T1, ATP-dependent translocase ABCB1 (Homo sapiens, UniProt P08183); assay: Non-competitive inhibition of human ABCB1 expressed in Sf9 cell membrane vesicles assessed as reduction in verapamil transport at >25 uM using MgATP by colorimetric ATPase assay
[4] = molecular target: T1, ATP-dependent translocase ABCB1; assay: Inhibition of human ABCB1 expressed in mouse L5178Y cells assessed as fluorescence activity ratio at 20 uM incubated for 10 mins by flow cytometry based rhodamine-123 accumulation assay (reference value: 0.78); type: cell-based
L5178Y [5] = assay: Antiproliferative activity against human ABCB1 expressing mouse L5178Y cells incubated for 72 hrs by MTT assay; type: functional, cell-based
L5178Y [6] = assay: Antiproliferative activity against chemosensitive wild type parental mouse L5178Y cells incubated for 72 hrs by MTT assay; type: functional, cell-based
[7] = molecular target: T1, ATP-dependent translocase ABCB1; assay: Inhibition of human ABCB1 expressed in mouse L5178Y cells assessed as fluorescence activity ratio at 2 uM incubated for 10 mins by flow cytometry based rhodamine-123 accumulation assay (reference value: 0.78); type: cell-based
[8] = molecular target: T1, ATP-dependent translocase ABCB1; assay: Inhibition of ABCB1 in multidrug resistant human COLO320 cells assessed as fluorescence activity ratio at 20 uM incubated for 10 mins by flow cytometry based rhodamine-123 accumulation assay (reference value: 0.62)
[9] = Antiproliferative activity against multidrug resistant human COLO320 cells incubated for 72 hrs by MTT assay; type: functional; settings: COLO 320, 72 h
[10] = Selectivity index, ratio of cytotoxic IC50 for chemosensitive human COLO205 cells to cytotoxic IC50 for multidrug resistant human COLO320 cells; type: functional, COLO 205
COLO 205 = assay: Cytotoxicity against chemosensitive human COLO205 cells incubated for 24 hrs by MTT assay; type: functional, cell-based; settings: COLO 205, 24 h
[11] = Antiproliferative activity against chemosensitive human COLO205 cells incubated for 72 hrs by MTT assay; type: functional, cell-based; settings: COLO 205, 72 h
[12] = Cytotoxicity against multidrug resistant human COLO320 cells incubated for 24 hrs by MTT assay; type: functional, cell-based; settings: COLO 320, 24 h
L5178Y [13] = assay: Cytotoxicity against human ABCB1 expressing mouse L5178Y cells incubated for 24 hrs by MTT assay; type: functional, cell-based
[14] = molecular target: T1, ATP-dependent translocase ABCB1; assay: Inhibition of ABCB1 in multidrug resistant human COLO320 cells assessed as fluorescence activity ratio at 2 uM incubated for 10 mins by flow cytometry based rhodamine-123 accumulation assay (reference value: 0.62)
[15] = molecular target: T1, ATP-dependent translocase ABCB1; assay: Activation of human ABCB1 expressed in Sf9 cell membrane vesicles assessed as inorganic phosphate release at 0.8 uM to 100 uM using MgATP by colorimetric ATPase assay
L5178Y [16] = assay: Selectivity index, ratio of cytotoxic IC50 for wild type parental mouse L5178Y cells to cytotoxic IC50 for human ABCB1 expressing mouse L5178Y cells; type: functional
L5178Y [17] = assay: Cytotoxicity against chemosensitive wild type parental mouse L5178Y cells incubated for 24 hrs by MTT assay; type: functional, cell-based
[18] = molecular target: T1, ATP-dependent translocase ABCB1; assay: Inhibition of human ABCB1 expressed in mouse L5178Y cells assessed as potentiation of 2 mg/ml doxorubicin-induced cytotoxicty by measuring combination index at 5:1 compound to doxorubicin ratio incubated for 48 hrs by MTT assay; type: cell-based
[19] = molecular target: T1, ATP-dependent translocase ABCB1; assay: Non-competitive inhibition of human ABCB1 expressed in Sf9 cell membrane vesicles assessed as reduction in vanadate-sensitive ATPase activity at >25 uM using MgATP by colorimetric ATPase assay
[20] = molecular target: T1, ATP-dependent translocase ABCB1; assay: Inhibition of human ABCB1 expressed in mouse L5178Y cells assessed as potentiation of 2 mg/ml doxorubicin-induced cytotoxicty at 7:1 compound to doxorubicin ratio incubated for 48 hrs by MTT assay; type: cell-based
[21] = molecular target: T1, ATP-dependent translocase ABCB1; assay: Inhibition of human ABCB1 expressed in Sf9 cell membrane vesicles assessed as reduction in verapamil transport at 0.8 uM to 100 uM using MgATP by colorimetric ATPase assay
[22] = molecular target: T1, ATP-dependent translocase ABCB1; assay: Inhibition of ABCB1 in multidrug resistant human COLO320 cells assessed as fluorescence activity ratio at 0.2 uM incubated for 10 mins by flow cytometry based rhodamine-123 accumulation assay (reference value: 0.62)
[23] = molecular target: T1, ATP-dependent translocase ABCB1; assay: Inhibition of human ABCB1 expressed in mouse L5178Y cells assessed as fluorescence activity ratio at 0.2 uM incubated for 10 mins by flow cytometry based rhodamine-123 accumulation assay (reference value: 0.78); type: cell-based
[24] = molecular target: T1, ATP-dependent translocase ABCB1; assay: Inhibition of human ABCB1 expressed in Sf9 cell membrane vesicles assessed as reduction in verapamil transport at 0.8 uM to 100 uM using MgATP by colorimetric ATPase assay relative to control
[25] = molecular target: T1, ATP-dependent translocase ABCB1; assay: Inhibition of human ABCB1 expressed in mouse L5178Y cells assessed as potentiation of 2 mg/ml doxorubicin-induced cytotoxicty at 9:1 compound to doxorubicin ratio incubated for 48 hrs by MTT assay; type: cell-based

T1 sequence (P08183 whole entry): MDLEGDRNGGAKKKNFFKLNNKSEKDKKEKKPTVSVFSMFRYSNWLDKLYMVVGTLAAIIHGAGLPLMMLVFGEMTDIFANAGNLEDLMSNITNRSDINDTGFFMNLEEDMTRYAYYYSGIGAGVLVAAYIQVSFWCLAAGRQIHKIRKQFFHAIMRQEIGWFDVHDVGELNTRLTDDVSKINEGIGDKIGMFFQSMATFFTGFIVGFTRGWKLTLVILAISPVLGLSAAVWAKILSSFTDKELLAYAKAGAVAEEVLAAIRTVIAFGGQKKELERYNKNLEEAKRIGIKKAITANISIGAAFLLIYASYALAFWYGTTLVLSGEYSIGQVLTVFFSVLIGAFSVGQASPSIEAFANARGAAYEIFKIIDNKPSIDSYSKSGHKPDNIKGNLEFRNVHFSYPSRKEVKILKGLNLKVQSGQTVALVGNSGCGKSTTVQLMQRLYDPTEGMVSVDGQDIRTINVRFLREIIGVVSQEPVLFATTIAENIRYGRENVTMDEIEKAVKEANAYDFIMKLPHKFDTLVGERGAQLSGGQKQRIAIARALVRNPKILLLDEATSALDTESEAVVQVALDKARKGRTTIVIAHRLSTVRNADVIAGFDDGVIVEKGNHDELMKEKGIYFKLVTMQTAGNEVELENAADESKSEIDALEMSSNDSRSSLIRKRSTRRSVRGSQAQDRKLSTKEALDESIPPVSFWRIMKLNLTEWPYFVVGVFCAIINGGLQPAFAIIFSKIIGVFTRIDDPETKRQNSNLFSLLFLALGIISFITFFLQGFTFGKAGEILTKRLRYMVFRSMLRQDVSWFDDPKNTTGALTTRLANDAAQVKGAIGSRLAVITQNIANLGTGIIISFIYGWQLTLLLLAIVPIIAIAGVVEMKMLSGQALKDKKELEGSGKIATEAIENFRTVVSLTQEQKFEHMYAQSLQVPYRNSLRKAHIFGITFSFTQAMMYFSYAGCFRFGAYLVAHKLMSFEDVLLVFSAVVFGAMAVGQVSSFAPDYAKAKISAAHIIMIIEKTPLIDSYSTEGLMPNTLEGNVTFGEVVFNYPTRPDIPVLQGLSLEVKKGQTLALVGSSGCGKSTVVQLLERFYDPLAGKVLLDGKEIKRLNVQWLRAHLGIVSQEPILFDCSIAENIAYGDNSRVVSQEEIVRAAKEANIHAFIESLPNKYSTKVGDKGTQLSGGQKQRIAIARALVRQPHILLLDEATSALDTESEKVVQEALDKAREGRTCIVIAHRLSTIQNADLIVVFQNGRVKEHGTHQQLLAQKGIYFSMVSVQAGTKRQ

Row | Ratio [4] | Ratio [7] | Ratio [8] | Ratio [14] | Activity [15] | Ratio [22] | Ratio [23] | SMILES | Ratio IC50 [1] | Ratio IC50 (L5178Y [2]) | IC50 (L5178Y [5]) | IC50 (L5178Y [6]) | IC50 [9] | Ratio IC50 [10] | IC50 (COLO 205) | IC50 [11] | IC50 [12] | IC50 (L5178Y [13]) | Ratio IC50 (L5178Y [16]) | IC50 (L5178Y [17]) | CI [18] | other results
1 | 68.74 | 31.06 | 12.16 | 8.44 | Active |  |  | C/C1=C\[C@@H]2[C@H](CC[C@]3(CO3)[C@H](OC(=O)c3cccs3)[C@H]3[C@@H](OC(=O)c4cccs4)[C@@H](C)C[C@]3(O)C1=O)C2(C)C | <0.19 | 0.81 | 32.4 µM | 26.2 µM | > 100 µM | >3.99 | > 100 µM | 18.8 µM | 25.1 µM | 28.3 µM | 1.16 | 32.8 µM | 0.196 | inhibition (INH) [3]: Active; inhibition (INH) [19]: Active
2 | 1.61 | 0.67 | 1.55 | 1.03 |  |  |  | C/C1=C\[C@@H]2[C@H](CC[C@]3(CO3)[C@H](OC(=O)N(C)C)[C@H]3[C@@H](O)[C@@H](C)C[C@]3(O)C1=O)C2(C)C | 1 |  | > 100 µM | > 100 µM | 69 µM | <0.41 | 41 µM | 69 µM | > 100 µM | > 100 µM | >100 | > 100 µM |  | CI [20]: 0.861
3 | 71.78 | 67.06 | 13.97 | 9.85 | Active | 6.34 | 11.85 | CO[C@H]1[C@@H]2[C@H](CC[C@]3(COC(=O)c4ccccc4)O[C@@H]3[C@H]3[C@@H](OC(=O)c4ccccc4)[C@@H](C)C[C@]3(O)C(=O)[C@@H]1C)C2(C)C | 0.76 | 0.99 | 27.4 µM | 27 µM | 6.9 µM |  |  | 5.2 µM |  | 32.6 µM | 0.8 | 26.1 µM | 0.057 | inhibition (INH) [21]: Active; inhibition (INH) [24]: 50%
4 | 55.43 | 33.36 | 12.35 | 4.44 |  | 1.25 | 2.47 | COc1ccccc1C(=O)OC[C@]1(C)CC[C@H]2[C@@H](/C=C(\C)C(=O)[C@@]3(O)C[C@H](C)[C@H](OC(=O)c4ccccc4OC)[C@@H]3[C@H]1O)C2(C)C | 0.87 | 0.78 | 31.3 µM | 24.4 µM | 17.8 µM | 0.99 | 24.6 µM | 15.5 µM | 25.1 µM | 38.9 µM | 0.77 | 29.9 µM |  | CI [25]: 0.051
